Test in all cases: absorbance […] nm, Eadie-Hofstee plot
Type in all cases: biochemical, Ganoderma lucidum

Assay [1] deals with T1, Glac L4.
T1 construct: gene GL16398; native secreted isozyme, copper-induced culture, native-PAGE purified; 40-66 kDa range for all isozymes, described as multimeric; gene not assigned (GL tags are of another genome strain)
To be noted: citrate-phosphate pH 4.0 (methods; table title says optimal pH); 0.1-0.8 mM substrate; read-out: O-tolidine / Km.

For assay [2], the system named is T2, Glac L2.
T2 construct: gene GL16398; native secreted isozyme, copper-induced culture, native-PAGE purified; 40-66 kDa range for all isozymes, described as multimeric; gene not assigned (GL tags are of another genome strain)
To be noted: citrate-phosphate pH 4.0 (methods; table title says optimal pH); 0.1-0.8 mM substrate; read-out: O-tolidine / Km.

In assay [3] the test system is T3, Glac L3.
T3 construct: gene GL16398; native secreted isozyme, copper-induced culture, native-PAGE purified; 40-66 kDa range for all isozymes, described as multimeric; gene not assigned (GL tags are of another genome strain)
To be noted: citrate-phosphate pH 4.0 (methods; table title says optimal pH); 0.1-0.8 mM substrate; read-out: O-tolidine / Km.

Assay [4] relates to T4, Glac L5.
T4 construct: gene GL16398; native secreted isozyme, copper-induced culture, native-PAGE purified; 40-66 kDa range for all isozymes, described as multimeric; gene not assigned (GL tags are of another genome strain)
To be noted: citrate-phosphate pH 4.0 (methods; table title says optimal pH); 0.1-0.8 mM substrate; read-out: O-tolidine / Km.

Assay [5] deals with T3, Glac L3. To be noted: citrate-phosphate pH 4.0 (methods; table title says optimal pH); 0.5-3.0 mM substrate; read-out: Guaiacol / Km.
The subject of assay [6] is T1, Glac L4. To be noted: citrate-phosphate pH 4.0 (methods; table title says optimal pH); 0.5-3.0 mM substrate; read-out: Guaiacol / Km.
The test system of assay [7] is T2, Glac L2. To be noted: citrate-phosphate pH 4.0 (methods; table title says optimal pH); 0.5-3.0 mM substrate; read-out: Guaiacol / Km.
For assay [8], the system named is T4, Glac L5. To be noted: citrate-phosphate pH 4.0 (methods; table title says optimal pH); 0.5-3.0 mM substrate; read-out: Guaiacol / Km.
Assay [9] concerns T1, Glac L4. To be noted: 0.1 M sodium acetate pH 5.0 (methods; table title says optimal pH); 0.02-0.5 mM substrate; read-out: ABTS / Km.
In assay [10] the test system is T3, Glac L3. To be noted: 0.1 M sodium acetate pH 5.0 (methods; table title says optimal pH); 0.02-0.5 mM substrate; read-out: ABTS / Km.
For assay [11], the system named is T4, Glac L5. To be noted: 0.1 M sodium acetate pH 5.0 (methods; table title says optimal pH); 0.02-0.5 mM substrate; read-out: ABTS / Km.
Assay [12] concerns T2, Glac L2. To be noted: 0.1 M sodium acetate pH 5.0 (methods; table title says optimal pH); 0.02-0.5 mM substrate; read-out: ABTS / Km.

Read-outs that look alike come from different tables or passages of the source.

For the compound `Cc1cc(-c2ccc(N)c(C)c2)ccc1N` [O-tolidine], the Km in the assay with Glac L4 [1] was 365 µM; with Glac L2 [2], 724 µM; in the assay with Glac L3 [3], 507 µM; with Glac L5 [4] it was 78 µM.

In the case of `COc1ccccc1O` [guaiacol], the Km in the assay on Glac L3 [5] stood at 80 µM; in the assay on Glac L4 [6], 96 µM; in the assay with Glac L2 [7] it was 115 µM; in the assay with Glac L5 [8], 126 µM.

`CCn1c(=NN=c2sc3cc(S(=O)(=O)O)ccc3n2CC)sc2cc(S(=O)(=O)O)ccc21` [ABTS, 2,2′-azino-bis(3-ethylbenzothiazoline-6-sulfonic acid)]: the Km was found to be 50 µM with Glac L4 [9], 81 µM in the assay on Glac L3 [10], 15 µM in the assay on Glac L5 [11] and 83 µM with Glac L2 [12].

The values above are taken from paper PMC5397484, “Gel-Based Purification and Biochemical Study of Laccase Isozymes from Ganoderma sp. and Its Role in Enhanced Cotton Callogenesis” (Frontiers in Microbiology, 2017).
